Converted amounts (≈) assume the structure as drawn. The source made the active and inactive calls. No cut-off for these calls is given here.
How the values were obtained:
Madurella mycetomatis [1] = experiment: Antifungal activity against Madurella mycetomatis MM55 by XTT assay; type: functional, organism-based
Madurella mycetomatis [2] = experiment: Antifungal activity against Madurella mycetomatis MM55 at 100 uM by XTT assay; type: functional, organism-based
Madurella mycetomatis [3] = experiment: Antifungal activity against Madurella mycetomatis MM55 at 25 uM by XTT assay; type: functional, organism-based
Madurella mycetomatis [4] = experiment: Antifungal activity against Madurella mycetomatis I3 by XTT assay; type: functional
Madurella mycetomatis [5] = experiment: Antifungal activity against Madurella mycetomatis CBS247.48 by XTT assay; type: functional
Madurella mycetomatis [6] = experiment: Antifungal activity against Madurella mycetomatis Peru72012 by XTT assay; type: functional
Madurella mycetomatis [7] = experiment: Antifungal activity against Madurella mycetomatis I11 by XTT assay; type: functional
Madurella mycetomatis [8] = experiment: Antifungal activity against Madurella mycetomatis MM50 by XTT assay; type: functional
Madurella mycetomatis [9] = experiment: Antifungal activity against Madurella mycetomatis I1 by XTT assay; type: functional
Madurella mycetomatis [10] = experiment: Antifungal activity against Madurella mycetomatis SO1 by XTT assay; type: functional
[11] = Selectivity index, ratio of IC50 for mouse NIH3T3 cells to IC50 for Madurella mycetomatis MM55; type: toxicity; conditions: read-out: Ratio IC50
[12] = Cytotoxicity against mouse NIH3T3 cells incubated for 5 days by MTT assay; type: toxicity, cell-based
Madurella mycetomatis [13] = experiment: Antifungal activity against Madurella mycetomatis P1 by XTT assay; type: functional
Madurella mycetomatis [14] = experiment: Antifungal activity against Madurella mycetomatis AL1 by XTT assay; type: functional

| MIC (Madurella mycetomatis [4]) [µM] | MIC (Madurella mycetomatis [1]; Madurella mycetomatis, MM55) [µM] | MIC (Madurella mycetomatis [5]) [µM] | MIC (Madurella mycetomatis [6]) [µM] | MIC (Madurella mycetomatis [7]) [µM] | MIC (Madurella mycetomatis [8]) [µM] | MIC (Madurella mycetomatis [9]) [µM] | MIC (Madurella mycetomatis [10]) [µM] | MIC (Madurella mycetomatis [13]) [µM] | MIC (Madurella mycetomatis [14]) [µM] | SMILES | IC50 (Madurella mycetomatis [1]; Madurella mycetomatis, MM55) [µM] | selectivity ratio [11] | IC50 at 5 days [12] [µM] | further results |
| --- | --- | --- | --- | --- | --- | --- | --- | --- | --- | --- | --- | --- | --- | --- |
|  |  |  |  |  |  |  |  |  |  | OCCN1CCN(c2cc(-c3ccsc3)c3nc(-c4ccc(F)cc4)cn3n2)CC1 | 5.3 |  |  |  |
|  |  |  |  |  |  |  |  |  |  | CN1CCN(c2cc(Br)c3nc(-c4ccc(F)cc4)cn3n2)CC1 |  |  |  | Activity (Madurella mycetomatis [2]): inactive; Activity (Madurella mycetomatis [3]): inactive |
| 8 (≈ 3.9 µg/mL) | 8 (≈ 3.9 µg/mL) | 4 (≈ 1.95 µg/mL) | 4 (≈ 1.95 µg/mL) | 8 (≈ 3.9 µg/mL) | 4 (≈ 1.95 µg/mL) | 4 (≈ 1.95 µg/mL) | 4 (≈ 1.95 µg/mL) | 4 (≈ 1.95 µg/mL) | 4 (≈ 1.95 µg/mL) | CN1CCN(c2cc(-c3cnc(N4CCN(C)CC4)nc3)c3nc(-c4ccc(F)cc4)cn3n2)CC1 | 2.9 | 6.8 | 12.3 |  |
| > 16 | > 16 | 16 (≈ 6.26 µg/mL) | > 16 | > 16 | > 16 | 16 (≈ 6.26 µg/mL) | > 16 | 16 (≈ 6.26 µg/mL) | > 16 | CN1CCN(c2cc(-c3cnn(C)c3)c3nc(-c4ccc(F)cc4)cn3n2)CC1 [listing 1 of 2 here] |  | 3.1 | 9 | IC50 (Madurella mycetomatis [1]): 3.8 µM |
| 8 (≈ 3.24 µg/mL) | 4 (≈ 1.62 µg/mL) | 8 (≈ 3.24 µg/mL) | 8 (≈ 3.24 µg/mL) | 8 (≈ 3.24 µg/mL) | 8 (≈ 3.24 µg/mL) | 8 (≈ 3.24 µg/mL) | 16 (≈ 6.49 µg/mL) | 8 (≈ 3.24 µg/mL) | 8 (≈ 3.24 µg/mL) | OCCN1CCN(c2cc(-c3ccsc3)c3nc(-c4ccccc4)cn3n2)CC1 | 2.6 | 3.4 | 13.1 |  |
|  |  |  |  |  |  |  |  |  |  | CN1CCN(c2cc(-c3cccc4[nH]ccc34)c3nc(-c4ccc(F)cc4)cn3n2)CC1 |  |  |  | IC50 (Madurella mycetomatis [1]): 10.6 µM |
| 8 (≈ 3.41 µg/mL) | 16 (≈ 6.82 µg/mL) | 4 (≈ 1.71 µg/mL) | 4 (≈ 1.71 µg/mL) | 4 (≈ 1.71 µg/mL) | 4 (≈ 1.71 µg/mL) | 4 (≈ 1.71 µg/mL) | 8 (≈ 3.41 µg/mL) | 8 (≈ 3.41 µg/mL) | 8 (≈ 3.41 µg/mL) | CN1CCN(c2cc(-c3ccc4[nH]ccc4c3)c3nc(-c4ccc(F)cc4)cn3n2)CC1 | 3.4 | 2.6 | 9 |  |
|  |  |  |  |  |  |  |  |  |  | CN1CCN(c2cc(-c3cnn(C)c3)c3nc(-c4ccc(F)cc4)cn3n2)CC1 [listing 2 of 2 here] |  |  |  | IC50 (Madurella mycetomatis [1]): 9.5 µM |
| 16 (≈ 6.54 µg/mL) | 8 (≈ 3.27 µg/mL) | 16 (≈ 6.54 µg/mL) | 8 (≈ 3.27 µg/mL) | > 16 | 16 (≈ 6.54 µg/mL) | 8 (≈ 3.27 µg/mL) | 16 (≈ 6.54 µg/mL) | 8 (≈ 3.27 µg/mL) | 16 (≈ 6.54 µg/mL) | CN1CCN(c2cc(-c3cccc4[nH]ccc34)c3nc(-c4ccccc4)cn3n2)CC1 [listing 1 of 2 here] |  | 2.8 | 9.9 | IC50 (Madurella mycetomatis [1]): 4.8 µM |
|  |  |  |  |  |  |  |  |  |  | OCCN1CCN(c2cc(-c3cccc4[nH]ccc34)c3nc(-c4ccc(F)cc4)cn3n2)CC1 | > 16 |  |  |  |
|  |  |  |  |  |  |  |  |  |  | CN1CCN(c2cc(-c3cccc4[nH]ccc34)c3nc(-c4ccccc4)cn3n2)CC1 [listing 2 of 2 here] | 8.3 |  |  |  |
|  |  |  |  |  |  |  |  |  |  | CN1CCN(c2cc(-c3ccoc3)c3nc(-c4ccc(F)cc4)cn3n2)CC1 |  |  |  | Activity (Madurella mycetomatis [2]): Active; Activity (Madurella mycetomatis [3]): inactive |
|  |  |  |  |  |  |  |  |  |  | CN1CCN(c2cc(-c3ccc4cc[nH]c4c3)c3nc(-c4ccc(F)cc4)cn3n2)CC1 | 7.1 |  |  |  |
|  |  |  |  |  |  |  |  |  |  | CN1CCN(c2cc(-c3ccsc3)c3nc(-c4ccc(F)cc4)cn3n2)CC1 [listing 1 of 2 here] |  |  |  | Activity (Madurella mycetomatis [2]): Active; Activity (Madurella mycetomatis [3]): Active |
| 8 (≈ 3.76 µg/mL) | 2 (≈ 0.939 µg/mL) | 8 (≈ 3.76 µg/mL) | 8 (≈ 3.76 µg/mL) | 8 (≈ 3.76 µg/mL) | 8 (≈ 3.76 µg/mL) | 8 (≈ 3.76 µg/mL) | 16 (≈ 7.51 µg/mL) | 8 (≈ 3.76 µg/mL) | 8 (≈ 3.76 µg/mL) | CN1CCN(c2cc(-c3cnc(N4CCN(C)CC4)nc3)c3nc(-c4ccccc4)cn3n2)CC1 | 2 | 16 | 14.3 |  |
|  |  |  |  |  |  |  |  |  |  | CN1CCN(c2cc(-c3ccsc3)c3nc(-c4ccc(F)cc4)cn3n2)CC1 [listing 2 of 2 here] | 5 |  |  |  |
| 1 (≈ 0.706 µg/mL) | 0.5 (≈ 0.353 µg/mL) | 2 (≈ 1.41 µg/mL) | 0.5 (≈ 0.353 µg/mL) | 0.5 (≈ 0.353 µg/mL) | 1 (≈ 0.706 µg/mL) | 8 (≈ 5.65 µg/mL) | 0.25 (≈ 0.176 µg/mL) | 0.25 (≈ 0.176 µg/mL) | 0.06 (≈ 0.0423 µg/mL) | CCC(C)n1ncn(-c2ccc(N3CCN(c4ccc(OCC5COC(Cn6cncn6)(c6ccc(Cl)cc6Cl)O5)cc4)CC3)cc2)c1=O (configuration not stated) [ITRACONAZOLE] | 1.1 | 1.4 | 13.7 |  |
|  |  |  |  |  |  |  |  |  |  | COc1ccccc1-c1cn2nc(N3CCN(C)CC3)cc(-c3ccsc3)c2n1 | 5.8 |  |  |  |
|  |  |  |  |  |  |  |  |  |  | CC(C)CCn1cc(-c2cc(N3CCN(C)CC3)nn3cc(-c4ccc(F)cc4)nc23)cn1 | 10.3 |  |  |  |
|  |  |  |  |  |  |  |  |  |  | COc1ccccc1-c1cn2nc(N3CCN(C)CC3)cc(-c3cccc4[nH]ccc34)c2n1 | > 16 |  |  |  |

Source: ChEMBL document CHEMBL5614400, “Emerging therapeutics: The imidazo[1,2-b]pyridazine scaffold as a novel drug candidate for eumycetoma, a neglected tropical disease” (Eur J Med Chem, 2024)
